We go through 47 compounds from PMC10626578, “Designed switch from covalent to non-covalent inhibitors of carboxylesterase Notum activity” (European Journal of Medicinal Chemistry, 2023).

SMILES strings stand for the structures. Structures can show the parent of a compound that is named as a salt. Where two headings read alike, the source gives them in different places. Bounds are passed on as bounds.

Series [1] concerns the target T1, Notum (core, 81–451C330S) (Homo sapiens, UniProt Q6P988, C330S).
T1 construct: high-throughput biochemical assay with Notum (81–451C330S) and OPTS as a synthetic fluorescent substrate; made in house
T1 sequence (Q6P988 81-451 C330S): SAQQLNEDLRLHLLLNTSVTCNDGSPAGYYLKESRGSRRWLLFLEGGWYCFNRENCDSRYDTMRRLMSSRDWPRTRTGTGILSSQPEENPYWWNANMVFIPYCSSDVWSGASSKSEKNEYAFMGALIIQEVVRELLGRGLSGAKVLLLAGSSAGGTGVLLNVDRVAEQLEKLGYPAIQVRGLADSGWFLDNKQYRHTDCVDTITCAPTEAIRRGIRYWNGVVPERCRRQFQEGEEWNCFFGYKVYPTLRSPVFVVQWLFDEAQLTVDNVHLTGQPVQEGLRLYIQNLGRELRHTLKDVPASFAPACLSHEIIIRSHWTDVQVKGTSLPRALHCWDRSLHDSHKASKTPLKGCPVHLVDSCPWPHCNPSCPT
As to the kind of experiment: Notum-OPTS biochemical assay, Notum (81–451C330S). The settings on record: for IC50 / Notum IC50: >10 = 20–50% inhibition @ 10 μM; for IC50: read-out: Notum IC50; for fold decrease in Notum inhibition compared to 3a: weaker. Here is the method:
Notum inhibitors 3–5 (Table 1, Table 2, Table 3, Table 4) were either purchased or prepared using established synthetic methods from readily available starting materials (Scheme 1). Where necessary, the synthesis of many of these amines (e.g. 6) have been reported previously and full details of their preparation have been included in the Experimental Section. Notum inhibition activity was determined using the standard Notum-OPTS biochemical assay using IC50 values. These values were used to compare relative activities with covalent inhibitors under carefully regulated assay conditions. […] Selected inhibitors were screened for inhibition of Notum activity in a TCF/LEF Reporter (Luciferase) cell line with exogenous WNT3a and Notum, and soaked into Notum crystals to determine their binding modes and evidence of MoA.
Methods have been described in detail.

The nature of series [2]: Stability in mouse liver microsomes. Format: in vitro ADME. The procedure: Selected compounds were routinely screened for aqueous solubility in PBS (pH 7.4), transit performance in MDCK-MDR1 cell lines for permeability, and metabolic stability in MLM and HLM as a measure of clearance. The main metabolites and routes of metabolism of 4y were determined in MLM. Assay protocols and additional data are presented in the Supplementary Material (Tables S1–S7). ADME studies reported in this work were performed by WuXi AppTec (Shanghai, China).
Representative assay protocols have been described in detail. ^1,2
A general note: Liver microsomes are vesicles of endoplasmic reticulum, rich in cytochrome P450 enzymes.

Setting [3] is: Table 2, mean ± s.d. of n = 4–12.
Setting [4] is: Table 1, mean ± s.d. of n = 2–6, inactive = <20% inhibition @ 10 μM, 2a covalent, IC50 time-dependant.
[5] abbreviates: Table 4, mean ± s.d. of n = 4–8.
The mark [6] stands for this setting: mouse, read-out: MLM Stability t1/2.

Consider `COc1ccc2c(c1)CCN2C(C)=O` [Compound 4t, 1-(5-Methoxyindolin-1-yl)ethan-1-one], for which the concentration for half-maximal inhibition (IC50) in series [1] (setting [3]) worked out at 670 ± 80 nM.
Regarding `CC(=O)N1CCS(=O)(=O)c2ccccc21` [Compound 3o, 1-(1,1-Dioxido-2,3-dihydro-4H-benzo[b][1,4]thiazin-4-yl)ethan-1-one], in series [1] (setting [4]), the half-maximal inhibitory concentration (IC50) is greater than 10000 nM.
For the compound `CC(=O)N1CCc2cc(Cl)ccc21` [Compound 4h, 1-(5-Chloroindolin-1-yl)ethan-1-one], the IC50 in series [1] (setting [3]) was 95 ± 14 nM.
With `CC(=O)N1CC(=O)c2ccccc21` [Compound 3i, 1-Acetylindolin-3-one], the 50% inhibitory concentration (IC50) in series [1] (setting [4]) amounted to 690 ± 120 nM.
`CC(=O)N1CCOc2ccccc21` [Compound 3m, 1-(2,3-Dihydro-4H-benzo[b][1,4]oxazin-4-yl)ethan-1-one]: the IC50 in series [1] (setting [4]) came out at 2800 ± 1800 nM.
In the case of `CC(C)C(=O)N1CC2(CC2)c2c(Cl)cccc21` [Compound 5a, 1-(4′-Chlorospiro[cyclopropane-1,3′-indolin]-1′-yl)-2-methylpropan-1-one], in series [1] (setting [5]), the IC50 turned out to be 4400 ± 300 nM.
Consider `CC(=O)N1CCc2cc(C)ccc21` [Compound 4q, 1-(5-Methylindolin-1-yl)ethan-1-one], for which, in series [1] (setting [3]), the IC50 was 220 ± 20 nM.
With `CC(=O)N1CC(C)c2ccccc21` (centres unmarked) [Compound 4b, 1-(3-Methylindolin-1-yl)ethan-1-one], the IC50 in series [1] (setting [3]) stood at 260 ± 80 nM. For the same compound, the “fold increase in Notum inhibition over 3a” value in series [1] (vs 3a, more potent) amounted to 2 fold.
As to `CC(=O)N1CCOc2c(Cl)cccc21` [Compound 5e, 1-(8-Chloro-2,3-dihydro-4H-benzo[b][1,4]oxazin-4-yl)ethan-1-one], the IC50 in series [1] (setting [5]) is 8500 ± 2100 nM.
As for `O=C1CCC2Cc3cc(Cl)ccc3N12` (centres unmarked) [Compound 5j, 7-Chloro-1,2,9,9a-tetrahydro-3H-pyrrolo[1,2-a]indol-3-one], the 50% inhibitory concentration (IC50) in series [1] (setting [5]) was found to be 1200 ± 400 nM.
Regarding `O=C1CCCN1c1ccccc1` [Compound 3g, 1-Phenylpyrrolidin-2-one], the IC50 in series [1] (setting [4]) was greater than 10000 nM.
As for `O=C1COCC2Cc3ccccc3N12` (centres unmarked) [Compound 5i, 10,10a-Dihydro-1H-[1,4]oxazino[4,3-a]indol-4(3H)-one], the half-maximal inhibitory concentration (IC50) in series [1] (setting [5]) lay within 1600 to 10000 nM.
Consider `CC(=O)N1CCc2ccccc21` [Compound 3a, 1-(Indolin-1-yl)ethan-1-one], for which the 50% inhibitory concentration (IC50) in series [1] (setting [4]) worked out at 400 ± 110 nM. Further, the LE in series [1] (ligand efficiency from Notum OPTS IC50) was 0.75. Besides, in series [1] (lipophilic ligand efficiency from Notum OPTS IC50 and clogP), the LLE is recorded as 5.0. In series [1] (vs 2b), the “fold more potent than 2b (Notum IC50)” value stood at 7 fold. For the same compound, the “MLM Stability Cli” value in series [2] was 180 µL/min/mg protein. Also, the half-life in series [2] (setting [6]) came to 8 min.
Take `CC(=O)N1CCc2cc(F)ccc21` [Compound 4s, 1-(5-Fluoroindolin-1-yl)ethan-1-one]: the concentration for half-maximal inhibition (IC50) in series [1] (setting [3]) came to 350 ± 40 nM.
With `CC(=O)n1cnc2ccccc21` [Compound 3l, 1-(1H-Benzo[d]imidazole-1-yl)ethan-1-one], the “Notum IC50” value in series [1] (setting [4]) was “inactive ^c”.
As for `CC(=O)N1CCc2cc(C#N)ccc21` [Compound 4r, 1-Acetylindoline-5-carbonitrile], the IC50 in series [1] (setting [3]) was greater than 10000 nM.
As to `CC(=O)n1ncc2ccccc21` [Compound 3k, 1-(1H-Indazol-1-yl)ethan-1-one], in series [1] (setting [4]), the half-maximal inhibitory concentration (IC50) was greater than 10000 nM.
Regarding `COc1cccc2c1CCN2C(C)=O` [Compound 4n, 1-(4-Methoxyindolin-1-yl)ethan-1-one], in series [1] (setting [3]), the IC50 is 670 ± 70 nM.
Consider `CC(=O)N1CCc2ccc(Cl)cc21` [Compound 4i, 1-(6-Chloroindolin-1-yl)ethan-1-one], for which the 50% inhibitory concentration (IC50) in series [1] (setting [3]) worked out at 1400 ± 200 nM.
Take `CC(=O)N1CCc2ccccc2C1` [Compound 3e, 1-(3,4-Dihydroisoquinolin-2(1H)-yl)ethan-1-one]: the IC50 in series [1] (setting [4]) is 8000 ± 2200 nM.
As to `Clc1ccc2c(c1Cl)CCN2` [Compound 5n, 4,5-Dichloroindoline], the IC50 in series [1] (setting [5]) was determined as 3600 ± 670 nM.
In the case of `CC(=O)n1ccc2c(Cl)cccc21` [Compound 5c, 1-(4-Chloro-1H-indol-1-yl)ethan-1-one], the 50% inhibitory concentration (IC50) in series [1] (setting [5]) stood at 730 ± 40 nM.
As to `CC(=O)N1CC2(CC2)c2cc(Cl)ccc21` [Compound 4z, 1-(5′-Chlorospiro[cyclopropane-1,3′-indolin]-1′-yl)ethan-1-one], the IC50 in series [1] (setting [3]) is 34 ± 10 nM. The “MLM Stability Cli” value in series [2] stood at 620 µL/min/mg protein. The half-life in series [2] (setting [6]) amounted to 2.2 min.
In the case of `O=C1N2c3ccccc3CC2CC1(F)F` (centres unmarked) [Compound 5m, 2,2-Difluoro-1,2,9,9a-tetrahydro-3H-pyrrolo[1,2-a]indol-3-one], in series [2] (setting [6]), the half-life at 1 h was 16 min.
With `CC(=O)N1c2ccccc2C2(C)CC12` (centres unmarked) [Compound 4f, 1-(6b-Methyl-1a,6b-dihydrocyclopropa[b]indol-2(1H)-yl)ethan-1-one], the IC50 in series [1] (setting [3]) was found to be 4100 ± 800 nM.
For `CCN1CCc2c(Cl)cccc21` [Compound 5o, 4-Chloro-1-ethylindoline hydrochloride], the IC50 in series [1] (setting [5]) is greater than 10000 nM.
As to `CC(=O)N(C)c1ccccc1C` [Compound 3h, N-Methyl-N-(o-tolyl)acetamide], the 50% inhibitory concentration (IC50) in series [1] (setting [4]) is greater than 10000 nM.
With `CC(=O)N1Cc2ccccc2C1` [Compound 3d, 1-(Isoindolin-2-yl)ethan-1-one], in series [1] (setting [4]), the IC50 is 2200 ± 400 nM.
Take `CC(=O)N1CCc2c(F)cccc21` [Compound 4m, 1-(4-Fluoroindolin-1-yl)ethan-1-one]: in series [1] (setting [3]), the IC50 turned out to be 93 ± 2 nM.
On the same count and under the same terms, as for `CC(=O)N1CCc2cccc(Cl)c21` [Compound 4j, 1-(7-Chloroindolin-1-yl)ethan-1-one], the figure is 6400 ± 900 nM; as for `CC(=O)N1CC(C)(C)c2ccccc21` [Compound 4c, 1-(3,3-Dimethylindolin-1-yl)ethan-1-one], 1400 ± 400 nM.
In the case of `CC(=O)N1CCCc2ccccc21` [Compound 3c, 1-(3,4-Dihydroquinolin-1(2H)-yl)ethan-1-one], the IC50 in series [1] (setting [4]) turned out to be 2500 ± 1000 nM. Further, in series [1] (vs 3a), the “fold decrease in Notum inhibition compared to 3a” value worked out at 6 fold.
For the compound `CC(=O)N1C(=O)Cc2ccccc21` [Compound 3j, 1-Acetylindolin-2-one], in series [1] (setting [4]), the concentration for half-maximal inhibition (IC50) came to 3200 ± 660 nM.
As to `CC(=O)N1CCc2c(C3CC3)cccc21` [Compound 4p, 1-(4-Cyclopropylindolin-1-yl)ethan-1-one], the IC50 in series [1] (setting [3]) turned out to be 290 ± 140 nM.
As to `O=C1OCC2Cc3ccccc3N12` (centres unmarked) [Compound 5h, 9,9a-Dihydro-1H,3H-oxazolo[3,4-a]indol-3-one], the IC50 in series [1] (setting [5]) amounted to 6100 ± 700 nM.
Turning to `CC(=O)N1CCc2c(C#N)cccc21` [Compound 4l, 1-Acetylindoline-4-carbonitrile], the half-inhibitory concentration (IC50) in series [1] (setting [3]) turned out to be 1500 ± 200 nM.
On the same count and under the same terms, with `CC(=O)N1CC2(CCC2)c2ccccc21` [Compound 4e, 1-(Spiro[cyclobutane-1,3′-indolin]-1′-yl)ethan-1-one] the figure was 1800 ± 1200 nM.
As for `CC(=O)N1CCSc2ccccc21` [Compound 3n, 1-(2,3-Dihydro-4H-benzo[b][1,4]thiazin-4-yl)ethan-1-one], the 50% inhibitory concentration (IC50) in series [1] (setting [4]) amounted to 3600 ± 100 nM.
On to `CC(=O)n1ccc2ccccc21` [Compound 3b, 1-(1H-Indol-1-yl)ethan-1-one], for which the IC50 in series [1] (setting [4]) came to 5300 ± 1200 nM. For the same compound, in series [1] (vs 3a), the “fold decrease in Notum inhibition compared to 3a” value was 10 fold.
Regarding `CC(=O)N1CCc2cc(C(F)(F)F)ccc21` [Compound 4u, 1-(5-(Trifluoromethyl)indolin-1-yl)ethan-1-one], the IC50 in series [1] (setting [3]) is 520 ± 50 nM.
`O=C1CCC2Cc3c(Cl)cccc3N12` (centres unmarked) [Compound 5k, 8-Chloro-1,2,9,9a-tetrahydro-3H-pyrrolo[1,2-a]indol-3-one]: the half-maximal inhibitory concentration (IC50) in series [1] (setting [5]) was 490 ± 30 nM.
`CC(=O)N1CC2(CC2)c2c1cccc2C(F)(F)F` [Compound 4aa, 1-(4'-(Trifluoromethyl)spiro[cyclopropane-1,3′-indolin]-1′-yl)ethan-1-one]: the concentration for half-maximal inhibition (IC50) in series [1] (setting [3]) was 17 ± 2 nM. In series [2], the “MLM Stability Cli” value turned out to be 670 µL/min/mg protein. Also, the half-life in series [2] (setting [6]) was determined as 2 min.
As for `CC(=O)N1c2ccccc2CC1C` (centres unmarked) [Compound 4a, 1-(2-Methylindolin-1-yl)ethan-1-one], the half-maximal inhibitory concentration (IC50) in series [1] (setting [3]) was found to be 2400 ± 1200 nM.
The same measure, in the same setting: with `CC(=O)N1CCc2c(C)cccc21` [Compound 4k, 1-(4-Methylindolin-1-yl)ethan-1-one] the figure was 83 ± 16 nM.
As to `CC12CCC(=O)N1c1ccccc1C2` (centres unmarked) [Compound 5l, 3a-Methyl-3,4-dihydro-2H-pyrrolo[1,2-a]indol-1-one], in series [1] (setting [5]), the IC50 was found to be 2100 ± 310 nM.
For the compound `CC(=O)N1CCc2ccc(Cl)c(Cl)c21` [Compound 4x, 1-(6,7-Dichloroindolin-1-yl)ethan-1-one], the half-inhibitory concentration (IC50) in series [1] (setting [3]) came out at 2200 ± 600 nM.
`CC(=O)N1CCC(c2ccccc2)C1` (centres unmarked) [Compound 3f, 1-(3-Phenylpyrrolidin-1-yl)ethan-1-one]: in series [1] (setting [4]), the “Notum IC50” value is “inactive ^c”.

The IC50 is the concentration that inhibits the measured activity by half.
